Measurements from PubChem BioAssay (NCI).
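Following 48 hours of exposure in 96-well plates, responses at five concentrations were used to interpolate endpoints linearly. TGI: total growth inhibition.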

How the values were obtained:
Experiment in all cases: NCI tumour cell line growth inhibition, 48 h
HCT-15 colon = test system: HCT-15 colon
M19-MEL melanoma = test system: M19-MEL melanoma
A498 renal = test system: A498 renal
NCI-H522 lung = test system: NCI-H522 lung
UACC-62 melanoma = test system: UACC-62 melanoma
P388 leukemia = test system: P388 leukemia
SNB-75 CNS = test system: SNB-75 CNS
HOP-18 NSCLC = test system: HOP-18 NSCLC
SF-268 CNS = test system: SF-268 CNS
SN12K1 renal = test system: SN12K1 renal
SF-539 CNS = test system: SF-539 CNS
SK-MEL-5 melanoma = test system: SK-MEL-5 melanoma
IGROV1 ovarian = test system: IGROV1 ovarian
SW-620 colon = test system: SW-620 colon
CCRF-CEM leukemia = test system: CCRF-CEM leukemia
OVCAR-5 ovarian = test system: OVCAR-5 ovarian
OVCAR-4 ovarian = test system: OVCAR-4 ovarian
NCI/ADR-RES ovarian = test system: NCI/ADR-RES ovarian
HCC-2998 colon = test system: HCC-2998 colon
EKVX NSCLC = test system: EKVX NSCLC
K-562 leukemia = test system: K-562 leukemia
RPMI-8226 leukemia = test system: RPMI-8226 leukemia
RXF 393 renal = test system: RXF 393 renal
MCF7 breast = test system: MCF7 breast
HT29 colon = test system: HT29 colon
KM12 colon = test system: KM12 colon
SNB-19 CNS = test system: SNB-19 CNS
SK-OV-3 ovarian = test system: SK-OV-3 ovarian
OVCAR-3 ovarian = test system: OVCAR-3 ovarian
SK-MEL-28 melanoma = test system: SK-MEL-28 melanoma
HOP-92 NSCLC = test system: HOP-92 NSCLC
DMS 114 small cell lung = test system: DMS 114 small cell lung
SNB-78 CNS = test system: SNB-78 CNS
UACC-257 melanoma = test system: UACC-257 melanoma
MALME-3M melanoma = test system: MALME-3M melanoma
SF-295 CNS = test system: SF-295 CNS
MOLT-4 leukemia = test system: MOLT-4 leukemia
NCI-H226 lung = test system: NCI-H226 lung
OVCAR-8 ovarian = test system: OVCAR-8 ovarian
HCT-116 colon = test system: HCT-116 colon
HL-60(TB) leukemia = test system: HL-60(TB) leukemia
DMS 273 small cell lung = test system: DMS 273 small cell lung
A549 NSCLC = test system: A549 NSCLC
LOX IMVI melanoma = test system: LOX IMVI melanoma
NCI-H460 lung = test system: NCI-H460 lung
DLD-1 colon = test system: DLD-1 colon
KM20L2 colon = test system: KM20L2 colon
NCI-H23 lung = test system: NCI-H23 lung
SN12C renal = test system: SN12C renal
P388/ADR leukemia = test system: P388/ADR leukemia
SK-MEL-2 melanoma = test system: SK-MEL-2 melanoma
HOP-62 NSCLC = test system: HOP-62 NSCLC
UO-31 renal = test system: UO-31 renal
U251 CNS = test system: U251 CNS
COLO 205 colon = test system: COLO 205 colon
SR leukemia = test system: SR leukemia
LXFL 529 NSCLC = test system: LXFL 529 NSCLC
XF 498 CNS = test system: XF 498 CNS
786-0 renal = test system: 786-0 renal
M14 melanoma = test system: M14 melanoma
CAKI-1 renal = test system: CAKI-1 renal
RXF-631 renal = test system: RXF-631 renal
TK-10 renal = test system: TK-10 renal
ACHN renal = test system: ACHN renal

SMILES: CSc1cc(=O)n2c3ccccc3c3ccnc1c32
- TGI (HCT-15 colon): > 100 µM
- TGI (M19-MEL melanoma): > 100 µM
- TGI (A498 renal): > 100 µM
- TGI (NCI-H522 lung): > 100 µM
- TGI (UACC-62 melanoma): > 100 µM
- TGI (P388 leukemia): > 100 µM
- TGI (SNB-75 CNS): > 94.3 µM
- TGI (HOP-18 NSCLC): 98.2 µM
- TGI (SF-268 CNS): > 75.5 µM
- TGI (SN12K1 renal): > 100 µM
- TGI (SF-539 CNS): > 71.4 µM
- TGI (SK-MEL-5 melanoma): > 100 µM
- TGI (IGROV1 ovarian): > 79.1 µM
- TGI (SW-620 colon): > 100 µM
- TGI (CCRF-CEM leukemia): > 100 µM
- TGI (OVCAR-5 ovarian): > 100 µM
- TGI (OVCAR-4 ovarian): > 100 µM
- TGI (NCI/ADR-RES ovarian): > 100 µM
- TGI (HCC-2998 colon): > 100 µM
- TGI (EKVX NSCLC): 56.8 µM
- TGI (K-562 leukemia): > 100 µM
- TGI (RPMI-8226 leukemia): > 100 µM
- TGI (RXF 393 renal): > 100 µM
- TGI (MCF7 breast): > 100 µM
- TGI (HT29 colon): > 100 µM
- TGI (KM12 colon): > 100 µM
- TGI (SNB-19 CNS): > 100 µM
- TGI (SK-OV-3 ovarian): 97.5 µM
- TGI (OVCAR-3 ovarian): > 100 µM
- TGI (SK-MEL-28 melanoma): > 100 µM
- TGI (HOP-92 NSCLC): > 100 µM
- TGI (DMS 114 small cell lung): > 100 µM
- TGI (SNB-78 CNS): > 100 µM
- TGI (UACC-257 melanoma): > 100 µM
- TGI (MALME-3M melanoma): > 100 µM
- TGI (SF-295 CNS): > 100 µM
- TGI (MOLT-4 leukemia): > 100 µM
- TGI (NCI-H226 lung): > 100 µM
- TGI (OVCAR-8 ovarian): > 100 µM
- TGI (HCT-116 colon): > 100 µM
- TGI (HL-60(TB) leukemia): > 100 µM
- TGI (DMS 273 small cell lung): > 100 µM
- TGI (A549 NSCLC): > 100 µM
- TGI (LOX IMVI melanoma): > 100 µM
- TGI (NCI-H460 lung): > 100 µM
- TGI (DLD-1 colon): > 100 µM
- TGI (KM20L2 colon): > 100 µM
- TGI (NCI-H23 lung): > 100 µM
- TGI (SN12C renal): > 100 µM
- TGI (P388/ADR leukemia): > 100 µM
- TGI (SK-MEL-2 melanoma): > 100 µM
- TGI (HOP-62 NSCLC): > 100 µM
- TGI (UO-31 renal): > 100 µM
- TGI (U251 CNS): > 100 µM
- TGI (COLO 205 colon): > 100 µM

SMILES: CC(=O)NC(CCCCNC(=O)NCCCl)C(=O)NCc1ccccc1 (stereo not drawn)
- TGI (HCT-15 colon): > 100 µM
- TGI (SR leukemia): > 100 µM
- TGI (M19-MEL melanoma): > 100 µM
- TGI (NCI-H522 lung): > 100 µM
- TGI (UACC-62 melanoma): > 100 µM
- TGI (SNB-75 CNS): > 100 µM
- TGI (LXFL 529 NSCLC): > 100 µM
- TGI (HOP-18 NSCLC): > 100 µM
- TGI (SF-268 CNS): > 100 µM
- TGI (SF-539 CNS): > 100 µM
- TGI (SK-MEL-5 melanoma): > 100 µM
- TGI (SW-620 colon): > 100 µM
- TGI (XF 498 CNS): > 100 µM
- TGI (CCRF-CEM leukemia): > 100 µM
- TGI (OVCAR-4 ovarian): > 100 µM
- TGI (786-0 renal): > 100 µM
- TGI (HCC-2998 colon): > 100 µM
- TGI (EKVX NSCLC): > 100 µM
- TGI (K-562 leukemia): > 100 µM
- TGI (M14 melanoma): > 100 µM
- TGI (RPMI-8226 leukemia): > 100 µM
- TGI (RXF 393 renal): > 100 µM
- TGI (HT29 colon): > 100 µM
- TGI (KM12 colon): > 100 µM
- TGI (SNB-19 CNS): > 100 µM
- TGI (CAKI-1 renal): > 100 µM
- TGI (OVCAR-3 ovarian): > 100 µM
- TGI (SK-MEL-28 melanoma): > 100 µM
- TGI (HOP-92 NSCLC): > 100 µM
- TGI (DMS 114 small cell lung): > 100 µM
- TGI (RXF-631 renal): > 100 µM
- TGI (UACC-257 melanoma): > 100 µM
- TGI (MALME-3M melanoma): > 100 µM
- TGI (SF-295 CNS): > 100 µM
- TGI (MOLT-4 leukemia): > 100 µM
- TGI (NCI-H226 lung): > 100 µM
- TGI (OVCAR-8 ovarian): > 100 µM
- TGI (HCT-116 colon): > 100 µM
- TGI (HL-60(TB) leukemia): > 100 µM
- TGI (DMS 273 small cell lung): > 100 µM
- TGI (A549 NSCLC): > 100 µM
- TGI (NCI-H460 lung): > 100 µM
- TGI (TK-10 renal): > 100 µM
- TGI (ACHN renal): > 100 µM
- TGI (DLD-1 colon): > 100 µM
- TGI (KM20L2 colon): > 100 µM
- TGI (NCI-H23 lung): > 100 µM
- TGI (SN12C renal): > 100 µM
- TGI (SK-MEL-2 melanoma): > 100 µM
- TGI (HOP-62 NSCLC): > 100 µM
- TGI (UO-31 renal): > 100 µM
- TGI (U251 CNS): > 100 µM
- TGI (COLO 205 colon): > 100 µM
